Measurements reported in US20090203577A1 (EXELIXIS, INC., priority 2005, published 2009).

Legend:
[1] = test system: patients with hypertriglyceridemia; settings: cited from earlier work
[2] = test system: male LDLR−/− mice; assay: Compound effects in diet-induced hyperlipidemic LDLR-/- mice (plasma triglyceride and cholesterol); assay type: in vivo, mouse
Method: Young adult male mice (˜8 weeks of age) were purchased from conventional vendors and group housed (3-4/cage) with ad libitum access to chow and water, in a temperature- and light-controlled vivarium (lights on at 06:00 hours, off at 18:00 hours). Compounds were administered daily by oral gavage in the morning (˜08:00 hrs), in a final volume of 0.1 ml/mouse, with the first dose of compound delivered on study day 0. Compounds were solubilized by gentle mixing in PEG400:Tween80 (4:1) for at least several hours and usually overnight prior to initiation of dosing. When necessary, solutions were sonicated briefly to ensure complete compound solubilization.
Blood samples (˜0.15 ml/mouse) were obtained from the retro-orbital sinus of non-fasted isoflurane-anesthetized mice, 3 hours after drug dosing. Blood samples were collected into heparin-coated tubes, and plasma was recovered following centrifugation. Plasma total cholesterol and triglyceride levels were determined by […] enzymatic commercially available assays that were adapted to 96-well plate formats. Plasma HDL cholesterol (HDL-C) was determined by removing non-HDL-C from the plasma with a precipitating reagent, and then determining the plasma cholesterol levels in the remaining HDL-C fraction. Plasma triglycerides concentrations, determined from a blood sample obtained in the 24 hours prior to the first dose, were used to group the mice such that the pre-study triglyceride levels between groups were equivalent prior to initiation of the dosing regimen.
Male LDLR^−/− mice (JAX Mice, Bar Harbor, Me.) consumed a purified “Western” diet (˜21% fat, 0.02% cholesterol w/w) ad libitum, for two weeks prior to and during treatment with Compound C daily by oral gavage at a dose of 10 mg/kg/day for 7 days (n=9-10/group).
In a separate study utilizing the same mouse model ([…]) subjected to the dietary lead-in for 8 weeks, LDLR^−/− mice were treated with Compound B at a dose of 10 mg/kg/day for 6 weeks.

[3] = Western diet 8 weeks lead-in, 10 mg/kg/day for 6 weeks

C[C@H](CCC(=O)O)[C@H]1CC[C@H]2[C@@H]3[C@H](O)C[C@@H]4C[C@H](O)CC[C@]4(C)[C@H]3CC[C@]12C [CDCA, chenodeoxycholic acid]
plasma triglyceride levels [1]: significantly lowers

CCOC(=O)C1=CN(C(=O)c2ccc(F)c(F)c2)CC(C)(C)c2c1[nH]c1ccccc21 [Compound B, Ethyl 3-(3,4-difluorobenzoyl)-1,1-dimethyl-1,2,3,6-tetrahydro-azepino[4,5-b]indole-5-carboxylate]
plasma cholesterol concentrations [2, 3]: lowered | plasma triglyceride concentrations [2, 3]: lowered

CC(C)OC(=O)C1=CN(C(=O)c2ccc(F)c(F)c2)CC(C)(C)c2c1[nH]c1ccccc21 [Compound C, isopropyl 3-(3,4-difluorobenzoyl)-1,1-dimethyl-1,2,3,6-tetrahydroazepino[4,5-b]indole-5-carboxylate]
plasma triglyceride concentrations ([2]; Western diet 2 weeks lead-in, 10 mg/kg/day oral gavage, study day 7): reduced plasma triglyceride concentrations to the level observed prior to introduction of the high-fat chow | lowering of plasma total cholesterol levels ([2]; Western diet 2 weeks lead-in, 10 mg/kg/day oral gavage, study day 7, p<0.05 vs. vehicle): ~40% | plasma lipid profiles ([2]; daily dosing throughout the 6 weeks of study, continued Western diet): sustained normalization
